Measured values taken from the kinase profiling compilation of Christmann-Franck et al. (2016).

Legend:
Experiment in all cases: radiometric filter-binding kinase assay, Kinase HotSpot
Settings in all cases: compound 0.5 µM; ATP 10 µM
[1] = molecular target: LIMK1 (human) (UniProt P53667)
[2] = molecular target: PLK1 (human) (UniProt P53350)
[3] = molecular target: AURKA (human) (UniProt O14965)
[4] = molecular target: MAPK14 (human) (UniProt Q16539)
[5] = molecular target: CAMK2B (human) (UniProt Q13554)
[6] = molecular target: KIT (human) (UniProt P10721)
[7] = molecular target: CHEK1 (human) (UniProt O14757)
[8] = molecular target: FRK (human) (UniProt P42685)
[9] = molecular target: CSNK2A1 (human) (UniProt P68400)
[10] = molecular target: DYRK1A (human) (UniProt Q13627)
[11] = molecular target: CAMK2D (human) (UniProt Q13557)
[12] = molecular target: ACVR1B (human) (UniProt P36896)
[13] = molecular target: ROCK1 (human) (UniProt Q13464)
[14] = molecular target: AURKC (human) (UniProt Q9UQB9)
[15] = molecular target: CDK2 CCNE1 (human) (UniProt P24941+P24864)
[16] = molecular target: PASK (human) (UniProt Q96RG2)
[17] = molecular target: EPHA4 (human) (UniProt P54764)
[18] = molecular target: EPHA5 (human) (UniProt P54756)
[19] = molecular target: OXSR1 (human) (UniProt O95747)
[20] = molecular target: TTK (human) (UniProt P33981)
[21] = molecular target: AXL (human) (UniProt P30530)
[22] = molecular target: PDGFRB (human) (UniProt P09619)
[23] = molecular target: DAPK2 (human) (UniProt Q9UIK4)
[24] = molecular target: CLK1 (human) (UniProt P49759)
[25] = molecular target: MKNK2 (human) (UniProt Q9HBH9)
[26] = molecular target: EPHB4 (human) (UniProt P54760)
[27] = molecular target: MAP4K2 (human) (UniProt Q12851)
[28] = molecular target: SRPK1 (human) (UniProt Q96SB4)
[29] = molecular target: RET (human) (UniProt P07949)
[30] = molecular target: JAK2 JH1 JH2 (human) (UniProt O60674)
[31] = molecular target: LCK (human) (UniProt P06239)
[32] = molecular target: PAK2 (human) (UniProt Q13177)
[33] = molecular target: ABL1 (human) (UniProt P00519)
[34] = molecular target: FGFR2 (human) (UniProt P21802)
[35] = molecular target: TXK (human) (UniProt P42681)
[36] = molecular target: MAPKAPK2 (human) (UniProt P49137)
[37] = molecular target: JAK1 JH1 catalytic (human) (UniProt P23458)
[38] = molecular target: CAMKK2 (human) (UniProt Q96RR4)
[39] = molecular target: MAP3K14 (human) (UniProt Q99558)
[40] = molecular target: NEK2 (human) (UniProt P51955)
[41] = molecular target: ERBB2 (human) (UniProt P04626)

Sequence of MAP3K14 (human) (Q99558 whole entry, looked up): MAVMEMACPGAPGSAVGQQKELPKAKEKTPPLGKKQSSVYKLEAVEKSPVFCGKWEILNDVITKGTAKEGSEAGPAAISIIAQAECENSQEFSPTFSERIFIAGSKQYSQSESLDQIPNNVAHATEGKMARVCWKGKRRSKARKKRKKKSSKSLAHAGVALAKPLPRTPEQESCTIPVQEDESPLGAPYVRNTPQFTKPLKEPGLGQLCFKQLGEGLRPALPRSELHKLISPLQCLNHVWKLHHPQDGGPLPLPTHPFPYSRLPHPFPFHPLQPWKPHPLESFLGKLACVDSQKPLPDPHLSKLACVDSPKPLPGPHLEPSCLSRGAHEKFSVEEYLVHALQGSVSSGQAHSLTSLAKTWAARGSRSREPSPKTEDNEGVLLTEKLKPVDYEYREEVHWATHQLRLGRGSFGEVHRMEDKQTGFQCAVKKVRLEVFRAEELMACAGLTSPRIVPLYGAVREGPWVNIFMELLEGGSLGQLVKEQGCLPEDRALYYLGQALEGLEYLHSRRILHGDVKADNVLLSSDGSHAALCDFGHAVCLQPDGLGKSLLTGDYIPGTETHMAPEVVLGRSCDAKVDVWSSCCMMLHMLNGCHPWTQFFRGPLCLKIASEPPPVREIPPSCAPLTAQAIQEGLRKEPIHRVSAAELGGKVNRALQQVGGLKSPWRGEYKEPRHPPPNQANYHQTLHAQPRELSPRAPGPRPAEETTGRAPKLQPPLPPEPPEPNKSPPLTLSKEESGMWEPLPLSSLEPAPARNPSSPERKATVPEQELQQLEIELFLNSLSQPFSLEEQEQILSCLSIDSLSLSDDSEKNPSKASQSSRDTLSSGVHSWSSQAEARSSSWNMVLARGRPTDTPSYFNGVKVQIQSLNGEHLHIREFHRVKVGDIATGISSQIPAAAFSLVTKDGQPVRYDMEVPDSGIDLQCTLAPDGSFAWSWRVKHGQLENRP
Sequence of ABL1 (human) (P00519 whole entry, looked up): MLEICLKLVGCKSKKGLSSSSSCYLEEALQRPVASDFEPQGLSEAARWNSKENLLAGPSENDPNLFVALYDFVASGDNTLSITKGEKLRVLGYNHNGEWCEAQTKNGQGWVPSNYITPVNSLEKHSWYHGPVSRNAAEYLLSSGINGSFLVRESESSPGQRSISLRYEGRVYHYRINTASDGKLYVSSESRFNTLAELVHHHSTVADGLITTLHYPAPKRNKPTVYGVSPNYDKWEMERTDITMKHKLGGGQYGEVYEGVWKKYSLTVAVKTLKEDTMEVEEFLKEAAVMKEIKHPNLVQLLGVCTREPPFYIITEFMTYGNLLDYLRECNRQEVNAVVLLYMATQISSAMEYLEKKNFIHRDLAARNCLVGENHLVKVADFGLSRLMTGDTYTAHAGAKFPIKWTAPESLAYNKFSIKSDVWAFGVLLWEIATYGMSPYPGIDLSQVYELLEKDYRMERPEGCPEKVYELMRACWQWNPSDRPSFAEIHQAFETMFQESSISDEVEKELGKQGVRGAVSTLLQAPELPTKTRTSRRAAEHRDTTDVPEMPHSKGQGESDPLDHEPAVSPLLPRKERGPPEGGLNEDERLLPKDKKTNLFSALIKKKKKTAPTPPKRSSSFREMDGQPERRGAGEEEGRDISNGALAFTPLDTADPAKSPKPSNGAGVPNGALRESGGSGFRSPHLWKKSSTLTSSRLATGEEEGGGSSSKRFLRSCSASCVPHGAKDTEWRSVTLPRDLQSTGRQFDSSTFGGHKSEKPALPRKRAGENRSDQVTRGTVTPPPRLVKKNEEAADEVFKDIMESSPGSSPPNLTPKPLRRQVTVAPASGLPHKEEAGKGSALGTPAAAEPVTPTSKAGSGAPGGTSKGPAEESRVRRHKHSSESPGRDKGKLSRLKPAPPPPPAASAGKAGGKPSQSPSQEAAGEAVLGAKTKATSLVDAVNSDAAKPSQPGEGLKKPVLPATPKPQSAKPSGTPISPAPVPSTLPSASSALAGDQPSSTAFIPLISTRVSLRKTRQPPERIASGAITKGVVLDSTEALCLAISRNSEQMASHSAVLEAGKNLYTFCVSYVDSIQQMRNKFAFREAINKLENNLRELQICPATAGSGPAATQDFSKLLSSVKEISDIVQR
Sequence of FRK (human) (P42685 whole entry, looked up): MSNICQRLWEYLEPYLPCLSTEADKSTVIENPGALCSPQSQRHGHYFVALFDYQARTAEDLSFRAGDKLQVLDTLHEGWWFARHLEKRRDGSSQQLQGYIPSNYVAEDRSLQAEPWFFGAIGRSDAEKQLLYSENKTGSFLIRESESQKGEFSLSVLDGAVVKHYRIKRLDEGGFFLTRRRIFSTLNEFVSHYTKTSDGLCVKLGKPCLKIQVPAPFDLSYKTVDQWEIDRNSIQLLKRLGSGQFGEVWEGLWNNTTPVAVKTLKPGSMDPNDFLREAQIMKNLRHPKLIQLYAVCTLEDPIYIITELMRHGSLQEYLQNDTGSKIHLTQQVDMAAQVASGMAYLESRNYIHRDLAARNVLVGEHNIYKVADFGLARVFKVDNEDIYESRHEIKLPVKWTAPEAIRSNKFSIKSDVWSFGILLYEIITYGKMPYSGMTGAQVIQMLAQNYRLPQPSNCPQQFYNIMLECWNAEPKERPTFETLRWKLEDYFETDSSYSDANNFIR
Sequence of CSNK2A1 (human) (P68400 whole entry, looked up): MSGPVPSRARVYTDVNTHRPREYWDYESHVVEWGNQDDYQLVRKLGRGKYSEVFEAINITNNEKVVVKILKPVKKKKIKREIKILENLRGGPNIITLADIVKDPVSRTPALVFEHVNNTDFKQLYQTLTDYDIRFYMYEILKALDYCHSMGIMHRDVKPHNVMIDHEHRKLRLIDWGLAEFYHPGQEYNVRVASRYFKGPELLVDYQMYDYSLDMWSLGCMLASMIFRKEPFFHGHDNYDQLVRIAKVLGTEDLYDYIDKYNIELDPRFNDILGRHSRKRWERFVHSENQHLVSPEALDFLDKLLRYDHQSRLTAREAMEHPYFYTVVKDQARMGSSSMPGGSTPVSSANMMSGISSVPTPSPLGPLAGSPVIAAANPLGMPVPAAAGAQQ
Sequence of CDK2 CCNE1 (human) (P24864 whole entry, looked up, other chains not shown): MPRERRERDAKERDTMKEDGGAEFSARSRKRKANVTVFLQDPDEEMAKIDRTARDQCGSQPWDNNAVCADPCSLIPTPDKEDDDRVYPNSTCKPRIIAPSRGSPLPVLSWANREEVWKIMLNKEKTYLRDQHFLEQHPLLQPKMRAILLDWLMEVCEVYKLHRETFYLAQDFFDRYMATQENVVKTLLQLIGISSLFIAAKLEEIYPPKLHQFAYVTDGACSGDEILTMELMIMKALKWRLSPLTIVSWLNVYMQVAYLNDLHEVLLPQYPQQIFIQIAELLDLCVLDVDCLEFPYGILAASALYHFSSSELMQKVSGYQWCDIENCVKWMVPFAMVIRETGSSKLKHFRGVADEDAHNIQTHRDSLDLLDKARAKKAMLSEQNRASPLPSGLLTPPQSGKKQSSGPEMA
Sequence of TTK (human) (P33981 whole entry, looked up): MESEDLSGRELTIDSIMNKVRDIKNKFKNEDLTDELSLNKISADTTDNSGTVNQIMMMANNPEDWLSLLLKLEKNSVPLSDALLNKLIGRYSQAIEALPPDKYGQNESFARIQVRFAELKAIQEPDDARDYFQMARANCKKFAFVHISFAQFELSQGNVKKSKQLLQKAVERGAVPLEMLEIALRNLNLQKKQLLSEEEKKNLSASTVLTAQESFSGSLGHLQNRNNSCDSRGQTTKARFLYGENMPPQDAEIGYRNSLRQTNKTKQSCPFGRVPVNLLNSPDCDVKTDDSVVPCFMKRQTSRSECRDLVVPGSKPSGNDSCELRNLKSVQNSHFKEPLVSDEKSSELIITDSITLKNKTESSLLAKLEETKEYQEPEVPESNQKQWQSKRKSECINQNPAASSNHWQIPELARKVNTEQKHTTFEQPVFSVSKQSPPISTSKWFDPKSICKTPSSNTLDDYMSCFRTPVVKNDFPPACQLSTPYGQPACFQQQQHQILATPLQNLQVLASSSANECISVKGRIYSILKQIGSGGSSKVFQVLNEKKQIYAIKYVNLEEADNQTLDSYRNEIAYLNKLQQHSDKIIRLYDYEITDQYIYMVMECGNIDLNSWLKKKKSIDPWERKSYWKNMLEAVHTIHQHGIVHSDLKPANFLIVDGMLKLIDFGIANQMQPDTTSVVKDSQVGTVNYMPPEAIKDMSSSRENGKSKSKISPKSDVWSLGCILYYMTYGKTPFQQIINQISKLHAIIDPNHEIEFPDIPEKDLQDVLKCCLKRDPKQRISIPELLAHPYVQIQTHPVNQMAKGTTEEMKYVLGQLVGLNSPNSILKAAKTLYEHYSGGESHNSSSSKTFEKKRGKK
Sequence of MAPK14 (human) (Q16539 whole entry, looked up): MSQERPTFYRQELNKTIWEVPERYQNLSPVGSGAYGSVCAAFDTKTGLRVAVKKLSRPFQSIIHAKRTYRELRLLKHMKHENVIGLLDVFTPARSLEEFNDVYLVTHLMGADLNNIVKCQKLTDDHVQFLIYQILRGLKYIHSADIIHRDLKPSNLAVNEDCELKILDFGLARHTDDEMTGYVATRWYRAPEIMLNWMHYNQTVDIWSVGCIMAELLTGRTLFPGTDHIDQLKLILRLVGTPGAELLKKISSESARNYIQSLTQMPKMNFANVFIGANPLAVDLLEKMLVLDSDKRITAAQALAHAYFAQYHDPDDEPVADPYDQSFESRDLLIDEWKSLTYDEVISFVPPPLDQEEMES
Sequence of AURKA (human) (O14965 whole entry, looked up): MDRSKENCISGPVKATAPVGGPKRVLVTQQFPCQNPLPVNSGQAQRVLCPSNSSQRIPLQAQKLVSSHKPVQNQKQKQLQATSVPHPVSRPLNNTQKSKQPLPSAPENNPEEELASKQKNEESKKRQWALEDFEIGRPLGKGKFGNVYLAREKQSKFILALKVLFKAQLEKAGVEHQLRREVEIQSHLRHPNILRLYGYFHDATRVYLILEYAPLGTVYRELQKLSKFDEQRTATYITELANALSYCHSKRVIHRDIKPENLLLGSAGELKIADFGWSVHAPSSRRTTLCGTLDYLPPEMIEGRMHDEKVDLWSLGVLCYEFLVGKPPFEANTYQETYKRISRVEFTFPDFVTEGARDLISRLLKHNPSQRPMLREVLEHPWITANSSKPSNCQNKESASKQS

| Compound | residual activity [1] [%] | residual activity [2] [%] | residual activity [3] [%] | residual activity [4] [%] | residual activity [7] [%] | residual activity [8] [%] | residual activity [9] [%] | residual activity [11] [%] | residual activity [12] [%] | residual activity [13] [%] | residual activity [14] [%] | residual activity [15] [%] | residual activity [16] [%] | residual activity [17] [%] | residual activity [19] [%] | residual activity [20] [%] | residual activity [21] [%] | residual activity [23] [%] | residual activity [26] [%] | residual activity [27] [%] | further results |
| --- | --- | --- | --- | --- | --- | --- | --- | --- | --- | --- | --- | --- | --- | --- | --- | --- | --- | --- | --- | --- | --- |
| CS(=O)(=O)CCNCc1ccc(-c2ccc3ncnc(Nc4ccc(OCc5cccc(F)c5)c(Cl)c4)c3c2)o1 | 95.2 | 99 | 81.5 | 101 | 100 | 104 | 121 | 92.5 | 98.7 | 108 | 90.9 | 98.8 | 101 | 101 | 105 | 102 | 96.2 | 103 | 94.1 | 104 | residual activity [5]: 93.8%; residual activity [6]: 98.4%; residual activity [10]: 101%; residual activity [18]: 103%; residual activity [22]: 92%; residual activity [24]: 107%; residual activity [25]: 97.3%; residual activity [28]: 100%; residual activity [29]: 99.8%; residual activity [30]: 101%; residual activity [31]: 94.2%; residual activity [32]: 102%; residual activity [33]: 96.4%; residual activity [34]: 96.4%; residual activity [35]: 110%; residual activity [36]: 94.7%; residual activity [37]: 98%; residual activity [38]: 101%; residual activity [39]: 109%; residual activity [40]: 118% |
| CO[C@@H]1[C@H](N(C)C(=O)c2ccccc2)C[C@H]2O[C@]1(C)n1c3ccccc3c3c4c(c5c6ccccc6n2c5c31)C(=O)NC4 | 19.6 | 95.4 | 4.48 | 93.7 | 53 | 65.8 | 101 | 17.3 | 102 | 85.3 | 12 | 81.2 | 90.9 | 96.9 | 98.2 | 55 | 106 | 105 | 110 | 5.17 | residual activity [5]: 57.4%; residual activity [22]: 14.8%; residual activity [28]: 97.1%; residual activity [30]: 8.94%; residual activity [31]: 19.8%; residual activity [32]: 66.6%; residual activity [33]: 82.7%; residual activity [35]: 71.7%; residual activity [36]: 97.8%; residual activity [37]: 16.3%; residual activity [38]: 3.9%; residual activity [39]: 113%; residual activity [40]: 101% |
| C[C@@H]1CCN(C(=O)CC#N)C[C@@H]1N(C)c1ncnc2[nH]ccc12 | 82 | 101 | 84.1 | 93.4 | 94.1 | 106 | 104 | 98.2 | 99.8 | 90.1 | 85.3 | 90.7 | 105 | 99.1 | 98.2 | 108 | 97.7 | 89.5 | 89.8 | 102 | residual activity [6]: 98.9%; residual activity [10]: 102%; residual activity [18]: 99.9%; residual activity [24]: 99.5%; residual activity [25]: 97.4%; residual activity [41]: 109%; residual activity [28]: 99.8%; residual activity [29]: 92.4%; residual activity [31]: 80.2%; residual activity [32]: 111%; residual activity [33]: 101%; residual activity [34]: 91.7%; residual activity [35]: 98.4%; residual activity [36]: 96.6%; residual activity [38]: 97.7%; residual activity [39]: 107%; residual activity [40]: 103% |
